In patent publication US10611747B2, “Pyrone based compounds for treating bacterial infections” (FORGE THERAPEUTICS, INC., priority 2015, dated 2020):
In brackets after ≈: the same amount, converted by molar mass. Like-named read-outs stand apart in the source and are kept apart here.

How the values were obtained:
[1] = biological target: LpxC (Klebsiella pneumoniae subsp. pneumoniae, UniProt A6T4N9); assay: Inhibition assay against Klebsiella pneumonae LpxC (LC-MS/MS); type: biochemical; conditions: LpxC 0.2 nM Kpn, 22° C., 60 minutes
Chain of LpxC (A6T4N9 whole entry): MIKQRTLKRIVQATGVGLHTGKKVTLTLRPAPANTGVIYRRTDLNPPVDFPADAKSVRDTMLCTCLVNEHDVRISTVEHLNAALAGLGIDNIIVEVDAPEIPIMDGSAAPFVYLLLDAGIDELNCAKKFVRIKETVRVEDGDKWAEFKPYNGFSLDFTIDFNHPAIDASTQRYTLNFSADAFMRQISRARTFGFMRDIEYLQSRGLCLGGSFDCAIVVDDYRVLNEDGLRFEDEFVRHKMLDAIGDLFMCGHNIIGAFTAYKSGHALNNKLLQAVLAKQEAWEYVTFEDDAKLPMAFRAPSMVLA
Experimental: LpxC inhibition assays were performed using liquid chromatography with tandem mass spectrometry. Assays were performed, in duplicate, in opaque, 96-well microplates in a total assay volume of 50 μL. The incubation mixture contained: LpxC (0.2 nM Kpn), 0.8 μM UDP-3-O—[(R)-3-hydroxymyristoyl]-N-acetyl-glucosamine, 40 mM Bis-Tris/HCI buffer (pH 5.9), 5 mM sodium phosphate buffer (NaH2PO4/Na2HPO4, pH 7.0), 1 mM DTT, 0.1% (w/v) fatty-acid free BSA, 10% DMSO (v/v, with or without compound). The reactions were incubated at 22° C. for 60 minutes (with mild shaking), then terminated by the addition of 25 μL 0.25 N HCl. Samples were analyzed using a LC-MS system to measure native LpxC substrate and reaction product. IC50 analysis was done using GeneData Screener and a four parameter variable slope normalized to controls. Test compounds were prepared as 8-point dose-response curves (factor dilution 2) in triplicate, starting at 1 μM final concentration. Each assay plate included 6 wells used for the Z′ factor calculation, 3 as a positive control for the assay and 3 as a negative control. The robustness was calculated as the median Z′ factor for 5 plates.

[2] = test system: S. aureus ATCC 29213; assay: Bacterial susceptibility testing (MIC, broth microdilution); type: cell-based; conditions: Staphylococcus aureus
Experimental: (§1) Minimal inhibitory concentrations (MIC) were determined by the broth microdilution method in accordance with the Clinical and Laboratory Standards Institute (CLSI) guidelines. In brief, organism suspensions were adjusted to a 0.5 McFarland standard to yield a final inoculum between 3×10^5 and 7×10^5 colony-forming units (CFU)/mL. Drug dilutions and inocula were made in sterile, cation adjusted Mueller-Hinton Broth (Beckton Dickinson). An inoculum volume of 100 μL was added to wells containing 100 μL of broth with 2-fold serial dilutions of drug. All inoculated microdilution trays were incubated in ambient air at 35° C. for 18-24 h. […] Performance of the assay was monitored by the use of laboratory quality-control strains and levofloxacin, a compound with a defined MIC spectrum, in accordance with CLSI guidelines.

[3] = test system: E. coli delta tolC; assay: as above; type: cell-based; conditions: Escherichia coli, 24 h, read-out: MIC E. coli delta tolC
Experimental: as §1

[4] = test system: P. aeruginosa 210 delta mexAB-OprM; assay: as above; type: cell-based; conditions: Pseudomonas aeruginosa, read-out: MIC P. aeruginosa 210 delta mexAB-OprM
Experimental: as §1

[5] = test system: P. aeruginosa 209; assay: as above; type: cell-based
Experimental: as §1

[6] = test system: E. coli ATCC 25922; assay: as above; type: cell-based; conditions: Escherichia coli
Experimental: as §1

[7] = test system: E. coli imp mutant; assay: as above; type: cell-based; conditions: Escherichia coli, read-out: MIC E. coli imp mutant
Experimental: as §1

[8] = test system: E. coli BW25113; assay: as above; type: cell-based; conditions: Escherichia coli, no FBS, 35° C., 18-24 h
Experimental: as §1

[9] = ATCC29213, broth microdilution, 35° C., 18-24 h, read-out: MIC S. aureus ATCC 29213
[10] = Pseudomonas aeruginosa, 209, broth microdilution, 35° C., 18-24 h, read-out: MIC P. aeruginosa 209
[11] = ATCC25922, no FBS, broth microdilution, 35° C., 18-24 h, read-out: MIC E. coli ATCC 25922-no FBS
[12] = ATCC29213, read-out: MIC S. aureus ATCC 29213
[13] = ATCC25922, read-out: MIC E. coli ATCC 25922-no FBS
[14] = Pseudomonas aeruginosa, 209, read-out: MIC P. aeruginosa 209

SMILES | IC50 [1] [nM] | MIC [2, 9] [µg/mL] | MIC [3] [µg/mL] | MIC [4] [µg/mL] | MIC [5, 10] [µg/mL] | MIC [6, 11] [µg/mL] | MIC [7] [µg/mL] | MIC [8] [µg/mL] | MIC [2, 12] [µg/mL] | MIC [6, 13] [µg/mL] | MIC [5, 14] [µg/mL]
O=C(c1ccc(C#CC#Cc2ccc(NCc3occc(=O)c3O)cc2)cc1)N1CC(O)C1 [Compound 39] | 10 to 100 | > 32 | < 1 | 8 to 32 (≈ 18.2 to 72.7 µM) | > 32 | 1 to 8 (≈ 2.27 to 18.2 µM) | 1 to 8 (≈ 2.27 to 18.2 µM) | 1 to 8 (≈ 2.27 to 18.2 µM) |  |  | 
O=c1ccoc(CNc2ccc(C#CC#Cc3ccc(CN4CCOCC4)cc3)cc2)c1O [Compound 47] | 10 to 100 | > 32 | 1 to 8 (≈ 2.27 to 18.2 µM) | > 32 | > 32 | 8 to 32 (≈ 18.2 to 72.6 µM) | 1 to 8 (≈ 2.27 to 18.2 µM) | 1 to 8 (≈ 2.27 to 18.2 µM) |  |  | 
CNC(=O)c1ccc(C#CC#Cc2ccc(NCc3oc(CS(C)(=O)=O)cc(=O)c3O)cc2)cc1 [Compound 4, 4-((4-(((3-hydroxy-6-((methylsulfonyl)methyl)-4-oxo-4H-pyran-2-yl)methyl)amino)phenyl)buta-1,3-diyn-1-yl)-N-methylbenzamide] | > 100 |  | < 1 |  |  |  | 8 to 32 (≈ 16.3 to 65.2 µM) |  | > 32 | 1 to 8 (≈ 2.04 to 16.3 µM) | 
O=c1ccoc(CNc2ccc(C#CC#Cc3ccccc3)cc2)c1O [Compound 28] | > 100 | > 32 | 1 to 8 (≈ 2.93 to 23.4 µM) | > 32 | > 32 | 1 to 8 (≈ 2.93 to 23.4 µM) | 1 to 8 (≈ 2.93 to 23.4 µM) | 1 to 8 (≈ 2.93 to 23.4 µM) |  |  | 
CNC(=O)c1ccc(C#CC#Cc2ccc(NCc3occc(=O)c3O)cc2)cc1 [Compound 35] | > 100 | > 32 | < 1 | > 32 | > 32 | 1 to 8 (≈ 2.51 to 20.1 µM) | 1 to 8 (≈ 2.51 to 20.1 µM) | 1 to 8 (≈ 2.51 to 20.1 µM) |  |  | 
O=C(c1ccc(C#CC#Cc2ccc(NCc3occc(=O)c3O)cc2)cc1)N1CCOCC1 [Compound 32] | 10 to 100 | > 32 | < 1 | > 32 | > 32 | 1 to 8 (≈ 2.2 to 17.6 µM) | 1 to 8 (≈ 2.2 to 17.6 µM) | 1 to 8 (≈ 2.2 to 17.6 µM) |  |  | 
CS(=O)(=O)Cc1cc(=O)c(O)c(COc2ccc(C#Cc3ccccc3)cc2)o1 [Compound 9, 2-((4-(2-phenylethynyl)phenoxy)methyl)-3-hydroxy-6-((methylsulfonyl)methyl)-4H-pyran-4-one] |  |  | 8 to 32 (≈ 19.5 to 78 µM) | > 32 |  |  | 8 to 32 (≈ 19.5 to 78 µM) | > 32 | 8 to 32 (≈ 19.5 to 78 µM) | > 32 | > 32
O=c1cc(CNc2ccc(C#CC#Cc3ccccc3)cc2)occ1O [Compound 30] |  | 8 to 32 (≈ 23.4 to 93.7 µM) | > 32 | > 32 | > 32 | > 32 | 1 to 8 (≈ 2.93 to 23.4 µM) | > 32 |  |  | 
COC1CN(C(=O)c2ccc(C#CC#Cc3ccc(NCc4occc(=O)c4O)cc3)cc2)C1 [Compound 51] |  | > 32 | < 1 | > 32 | > 32 | 1 to 8 (≈ 2.2 to 17.6 µM) | 1 to 8 (≈ 2.2 to 17.6 µM) | 1 to 8 (≈ 2.2 to 17.6 µM) |  |  | 
CN1CCN(C(=O)c2ccc(C#CC#Cc3ccc(NCc4occc(=O)c4O)cc3)cc2)CC1 [Compound 40] | 10 to 100 | > 32 | < 1 | 8 to 32 (≈ 17.1 to 68.4 µM) | > 32 | 1 to 8 (≈ 2.14 to 17.1 µM) | < 1 | 1 to 8 (≈ 2.14 to 17.1 µM) |  |  | 
O=C(NCc1cc(=O)c(O)co1)c1ccc(-c2ccccc2)cc1 [Compound 29] |  | > 32 | > 32 | > 32 | > 32 | > 32 | > 32 | > 32 |  |  | 
O=C(c1ccc(C#CC#Cc2ccc(NCc3occc(=O)c3O)cc2)cc1)N1C[C@H]2C[C@@H]1CO2 [Compound 36] |  | > 32 | < 1 | > 32 | > 32 | 8 to 32 (≈ 17.1 to 68.6 µM) | 1 to 8 (≈ 2.14 to 17.1 µM) | 1 to 8 (≈ 2.14 to 17.1 µM) |  |  | 
O=C(O)c1ccc(C#CC#Cc2ccc(NCc3occc(=O)c3O)cc2)cc1 [Compound 38] | > 100 | > 32 | < 1 | 8 to 32 (≈ 20.8 to 83 µM) | > 32 | 1 to 8 (≈ 2.59 to 20.8 µM) | < 1 | < 1 |  |  | 
CNC(=O)c1ccc(-c2ccc(OCc3oc(CS(C)(=O)=O)cc(=O)c3O)cc2)cc1 [Compound 8, 4′-((3-hydroxy-6-((methylsulfonyl)methyl)-4-oxo-4H-pyran-2-yl)methoxy)-N-methyl-[1,1′-biphenyl]-4-carboxamide] |  |  | > 32 | > 32 |  |  | > 32 | > 32 | > 32 | > 32 | > 32
CNC(=O)c1ccc(-c2ccc(NCc3oc(CNS(C)(=O)=O)cc(=O)c3O)cc2)cc1 [Compound 1, 4′-(((3-hydroxy-6-(methylsulfonamidomethyl)-1-oxo-4H-pyran-2-yl)methyl)amino)-N-methyl-[1,1′-biphenyl]-4-carboxamide] |  | > 32 | > 32 | > 32 | > 32 | > 32 | > 32 | > 32 |  |  | 
